{
  "source": "patent US6569902B2",
  "about": "“Nitrone inhibition of cancer development” (Oklahoma Medical Research Foundation, priority 2000, dated 2003)",
  "key": {"rats fed the CDAA diet": {"test_system": "rats fed the CDAA diet", "details": "cited from earlier work"}, "[1]": {"test_system": "GST-P-positive lesions in livers of male Wistar rats fed the CDAA diet", "experiment": "Example 2: numbers and sizes of GST-P-positive liver lesions, CDAA diet for 16 weeks", "assay_type": "in vivo, rat", "details": "for effect on the number or sizes of the GST-P-positive lesions: CDAA diet", "procedure": "Animals. A total of 110 male Wistar rats were obtained at 5 weeks of age from Charles River Japan, Inc., Atsugi, Kanagawa, Japan. Experimentation began after a 1-week acclimation on a basal diet (CE-2 diet, Clea Japan, Meguro, Tokyo, Japan). Rats were housed 5 each in plastic cages with white flake bedding (Kansai Animal Corp., City of Kyoto, Kyoto, Japan) in a standard atmosphere (temperature, 25±3° C.; relative humidity, 55±8%; ventilation, 10-15/hour; and a 12-hour dark/light cycle). Free access to food and tap water was allowed throughout the acclimation and experimental periods.\nDiets and chemicals. The CDAA diet and its control, a choline-supplemented, L-amino acid-defined (CSAA) diet (Nakae et al. 1992; and Nakae et al. 1990) were obtained from Dyets, Inc., Bethlehem, Pa. […] 2-Sulfoxy-PBN (2-SPBN) was purchased from Aldrich Chemical Co. (Milwaukee, Wis.).\n(§1) Animal experiment. After acclimation, rats were divided equally into 22 groups consisting of 5 animals each. Animals in group 1 received the CDAA diet alone. […] Groups 5-7, 8-10, 11-13 and 14-16 received the CDAA diet containing the low, middle, and high doses of 4-OHPBN, 3-OHPBN, 2-OHPBN and 2-SPBN, respectively. Group 17 received the CSAA diet alone. […] All animals were sacrificed by exsanguination under light ether anesthesia 16 weeks after commencement, and the livers excised. Slices 5-mm-thick were taken from the left lateral, median and right lateral lobes of the livers, fixed in 10% neutrally-buffered formalin for 24 hours and then embedded in paraffin. Five serial 4-μm-thick sections were prepared from each fixed liver slice and used for histological and immunohistochemical assessment as described below. The remaining portions of the livers were immediately frozen under liquid nitrogen and stored at −80° C. until use.\n(§2) Histological and immunohistochemical assessments. Histological assessment was performed using sections routinely stained with hematoxylin/eosin and Masson's trichrome procedures. Gradation of fibrosis was quantitatively evaluated in groups 1, 4, 7, 10, 13, 16 and 17 by calculating the percent area occupied by collagen fiber stained blue by Masson's trichrome method using an IPAP image analyzing system (Sumika Technoservice Corp., City of Osaka, Osaka, Japan). GST-P-positive lesions were visualized immunohistochemically. Lesions consisting of more than 6 cells were quantified using the IPAP system as described elsewhere (Kishida et al. 2000). The amount of apoptosis and the cellular proliferative activity were determined in groups 1, 4, 7, 10, 13, 16 and 17, using the double staining techniques by combination of the GST-P immunohistochemistry as above with the in situ terminal deoxynucleotidyl transferase-mediated dUTP-biotin nick end-labeling method (Gold et al. 1994) and the enhanced polymer one-step staining method for proliferating cell nuclear antigen (Tsutsumi et al. 1995), respectively. Numbers of apoptotic and proliferating hepatocytes among the 1000-5000 hepatocytes in GST-P-positive lesions and 5000 hepatocytes in surrounding tissue were counted under light microscopy to obtain percentages that are hereafter referred as apoptotic and proliferative indices, respectively.\n(§3) Statistics. Inter-group differences in quantitative data for multiple groups were recognized to be significant, when p values smaller than 0.05 were obtained by the Dunnett multiple comparison test employed after one-way analysis of variance to determine the variation among the group means followed by the Bartlett's test to determine the homogeniety of variance."}, "[2]": {"test_system": "livers of male Wistar rats fed the CDAA diet", "experiment": "Example 2: histological liver injury (fibrosis, fatty liver)", "assay_type": "in vivo, rat", "details": "high dose 0.090%, CDAA diet 16 weeks", "excerpt": "as §1, §2, §3"}, "[3]": {"test_system": "hepatocytes of male Wistar rats fed the CDAA diet", "experiment": "Example 2: apoptotic and proliferative indices in GST-P-positive lesions and surrounding tissue", "assay_type": "in vivo, rat", "details": "high dose 0.090%", "excerpt": "as §1, §2, §3"}, "[4]": {"test_system": "livers of male Wistar rats fed the CDAA diet", "experiment": "Example 2: oxidative hepatocyte injuries (8-OHdG, TBARS)", "assay_type": "in vivo, rat", "details": "for nuclear DNA 8-OHdG content increased by CDAA diet feeding: all doses, CDAA diet 16 weeks", "excerpt": "as §1\nDetermination of oxidative hepatocyte injuries. Levels of oxidative damage to the hepatocytes were determined on frozen liver samples. Oxidative damage to nuclear DNA was assessed as previously described, using the amount of 8-hydroxydeoxyguanosine (8-OHdG) to 10^6 deoxyguanosine (dG) ratio as a parameter (Nakae et al. 1995). Oxidative injury to extra-nuclear components was assessed as described elsewhere, by determining picomole malondialdehyde equivalent (MDA eq.) levels of 2-thiobarbituric acid-reacting substances (TBARS) per milligram protein (Nakae et al. 1990).\nas §3"}, "[5]": {"test_system": "rat liver microsome peroxidation", "details": "read-out: IC50, inhibition of rat liver microsome peroxidation; cited from earlier work"}},
  "note": "Like-named read-outs stand apart in the source and are kept apart here.",
  "data": [
    {"smiles": "CCCCCCCCCCCCCCCCCCOC1=C(O)C([C@@H](O)CO)OC1=O", "note": "(stereo partly shown) [CV3611]", "values": [
      {"measurement": "lowering of nodule size", "setting": "rats fed the CDAA diet; 0.05% level", "result": 44, "unit": "%"}
    ]},
    {"smiles": "CC(C)(C)[N+]([O-])=Cc1ccccc1O", "note": "[2-OHPBN, 2-hydroxyphenyl N-tert-butylnitone]", "values": [
      {"measurement": "effect on the number or sizes of the GST-P-positive lesions", "setting": "[1]", "result": "Neither 2-OHPBN nor 2-SPBN had any affect"},
      {"measurement": "grade of fibrosis versus group 1", "setting": "[2]", "result": "no affect"},
      {"measurement": "effect on apoptotic indices", "setting": "[3]", "result": "Neither 2-OHPBN nor 2-SPBN altered"},
      {"measurement": "nuclear DNA 8-OHdG content increased by CDAA diet feeding", "setting": "[4]", "result": "Neither 2-OHPBN nor 2-SPBN decreased"},
      {"measurement": "TBARS level enhanced by CDAA feeding", "setting": "[4]; all three doses", "result": "Neither 2-OHPBN nor 2-SPBN affected"}
    ]},
    {"smiles": "CC(=O)Oc1ccccc1C(=O)O", "note": "[Acetylsalicylic acid]", "values": [
      {"measurement": "effect on nodule size, nodule number and 8-OHdG content", "setting": "rats fed the CDAA diet; not nearly as potent as PBN", "result": "some effect"}
    ]},
    {"smiles": "c1ccc(Nc2ccc(Nc3ccccc3)cc2)cc1", "note": "[N,N′-diphenyl-p-phenylenediamine]", "values": [
      {"measurement": "effect on sizes and numbers of GST-P-positive lesions", "setting": "rats fed the CDAA diet; livers of rats fed the CDAA diet (Nakae et al. 1994)", "result": "reduces the sizes of GST-P-positive lesions without affecting their numbers"}
    ]},
    {"smiles": "Cc1c(C)c2c(c(C)c1O)CCC(C)(C(=O)O)O2", "note": "(stereo not shown) [Trolox]", "values": [
      {"measurement": "effect on any of the parameters", "setting": "rats fed the CDAA diet; rat, in vivo", "result": "very little effect"},
      {"measurement": "IC50", "setting": "[5]", "result": 40, "unit": "µM"}
    ]},
    {"smiles": "CC(Cc1ccc(O)c(O)c1)C(C)Cc1ccc(O)c(O)c1", "note": "(stereo not shown) [NGDA, nordihydroguaiaric acid]", "values": [
      {"measurement": "lowering of nodule size", "setting": "rats fed the CDAA diet; 0.1% level", "result": 39, "unit": "%"}
    ]},
    {"smiles": "CC(C)(C)[N+]([O-])=Cc1ccccc1S(=O)(=O)O", "note": "[2-SPBN, 2-sulfoxyphenyl N-tert-butylnitone]", "values": [
      {"measurement": "effect on the number or sizes of the GST-P-positive lesions", "setting": "[1]", "result": "Neither 2-OHPBN nor 2-SPBN had any affect"},
      {"measurement": "grade of fibrosis versus group 1", "setting": "[2]", "result": "no affect"},
      {"measurement": "effect on apoptotic indices", "setting": "[3]", "result": "Neither 2-OHPBN nor 2-SPBN altered"},
      {"measurement": "nuclear DNA 8-OHdG content increased by CDAA diet feeding", "setting": "[4]", "result": "Neither 2-OHPBN nor 2-SPBN decreased"},
      {"measurement": "TBARS level enhanced by CDAA feeding", "setting": "[4]; all three doses", "result": "Neither 2-OHPBN nor 2-SPBN affected"}
    ]},
    {"smiles": "Cc1cc(C(C)(C)C)c(O)c(C(C)(C)C)c1", "note": "[BHT]", "values": [
      {"measurement": "IC50", "setting": "[5]", "result": 6, "unit": "µM"}
    ]},
    {"smiles": "CCCCCCCCCCCCCCCCCCOC1=C(O)[C@@H]([C@@H](O)CO)OC1=O", "note": "[2-O-octadecylascorbic acid]", "values": [
      {"measurement": "inhibition of rat hepatocarcinogenesis", "setting": "rats fed the CDAA diet; chronic feeding in the CDAA diet (Mizumoto et al. 1994)", "result": "inhibits rat hepatocarcinogenesis by chronic feeding in the CDAA diet greater than its hydrophilic parent, L-ascorbic acid"}
    ]},
    {"smiles": "CC(C)(C)[N+]([O-])=Cc1ccc(O)cc1", "note": "[4-OHPBN, 4-hydroxyphenyl N-tert-butylnitrone]", "values": [
      {"measurement": "sizes of GST-P-positive lesions, % of the group 1 value", "setting": "[1]; high dose 0.090% in CDAA diet", "result": 18, "unit": "%"},
      {"measurement": "sizes of GST-P-positive lesions, % of the group 1 value", "setting": "[1]; low dose 0.009% in CDAA diet", "result": 24, "unit": "%"},
      {"measurement": "sizes of GST-P-positive lesions, % of the group 1 value", "setting": "[1]; middle dose 0.045% in CDAA diet", "result": 19, "unit": "%"},
      {"measurement": "grade of fibrosis versus group 1", "setting": "[2]", "result": "significantly lower"},
      {"measurement": "apoptotic index in the surrounding tissue, % of the group 1 value", "setting": "[3]", "result": "about 40%"},
      {"measurement": "proliferative index in the lesions, % of the group 1 value", "setting": "[3]", "result": "approximately 31%"},
      {"measurement": "proliferative index in the surrounding tissue, % of the group 1 value", "setting": "[3]", "result": "about 49%"},
      {"measurement": "nuclear DNA 8-OHdG content increased by CDAA diet feeding", "setting": "[4]", "result": "significantly inhibited"},
      {"measurement": "TBARS level enhanced by CDAA feeding", "setting": "[4]; all three doses", "result": "significantly exerted an effect"}
    ]},
    {"smiles": "Cc1c(C)c2c(c(C)c1O)CC[C@@](C)(CCC[C@H](C)CCC[C@H](C)CCCC(C)C)O2", "note": "[Alpha tocopherol]", "values": [
      {"measurement": "effect on any of the parameters", "setting": "rats fed the CDAA diet; rat, in vivo", "result": "very little effect"}
    ]},
    {"smiles": "O=C(CBr)c1ccc(Br)cc1", "note": "[BPB, p-bromophenocybromide]", "values": [
      {"measurement": "activity in suppressing the size of the nodules", "setting": "rats fed the CDAA diet; rat, in vivo", "result": "little activity"}
    ]},
    {"smiles": "CC(C)(C)[N+]([O-])=Cc1cccc(O)c1", "note": "[3-OHPBN, 3-hydroxyphenyl N-tert-butylnitrone]", "values": [
      {"measurement": "sizes of GST-P-positive lesions, % of the group 1 value", "setting": "[1]; high dose 0.090% in CDAA diet", "result": 9, "unit": "%"},
      {"measurement": "grade of fibrosis versus group 1", "setting": "[2]", "result": "significantly lower"},
      {"measurement": "apoptotic index in the surrounding tissue, % of the group 1 value", "setting": "[3]", "result": "about 40%"},
      {"measurement": "nuclear DNA 8-OHdG content increased by CDAA diet feeding", "setting": "[4]", "result": "significantly inhibited"},
      {"measurement": "TBARS level enhanced by CDAA feeding", "setting": "[4]; high dose 0.090% only", "result": "significantly inhibited"}
    ]}
  ]
}
